# Assay results reported in US12290564B2, “Methods and apparatuses for treating tumors” (RenovoRx, Inc., priority 2017, dated 2025).
# Test system: locally advanced pancreatic cancer
# Experiment: Post-market registry study: intra-arterial (TAMP) delivery of gemcitabine with the RenovoCath RC120 catheter
# Format: in vivo, human
# Method: A post-market registry study was conducted to assess patient survival and clinical outcomes using the RenovoCath™ RC120 catheter (RenovoRx, Los Altos, Calif.) in a clinical, prospective observational setting when used to deliver a chemotherapeutic to the pancreas as described in Table 1. [table] […] An interventional radiologist used the RenovoCath™ RC 120 catheter to optimize drug delivery to the tumor(s). At the conclusion of the case, the femoral artery arteriotomy was sealed and patient monitored as per standard institutional protocol. All patients enrolled during the two-year registry enrollment period were followed periodically for survival outcome. Patients were contacted by telephone at the following intervals after the final intra-arterial treatment: 6 months±30 days, 1 year±30 days and 2 years±30 days. Patients were assessed for serious adverse events with specific attention to events related to local delivery of chemotherapeutic agents to the pancreas and device performance. FIG. 10 is a graph 1000 illustrating the effect of the TAMP technique on patient survival after radiation therapy compared with the effect of the TAMP technique with no radiation therapy. Fifteen patients with locally advanced pancreatic cancer were treated with gemcitabine in a dose-escalated protocol administered in four cycles using the TAMP technique. […]
smiles,measurement,setting,value
Nc1ccn([C@@H]2O[C@H](CO)[C@@H](O)C2(F)F)c(=O)n1 [gemcitabine],survival rates (survival percentage) of patients,"gemcitabine by TAMP (eight treatments, or more than two treatments) compared with systemic infusion of gemcitabine (Chauffert et al. 2008), FIG. 9",greater than the survival rates of the patients given systemic infusion of the same drug
same,patient survival,"gemcitabine by TAMP, dose-escalated, four cycles, patients with prior radiation vs no prior treatment or only prior systemic chemotherapy, FIG. 10",significant improvement in survival
